Values after ≈ are worked out from the molar mass of the structure shown.
Legend:
Experiment in all cases: MIC, standard microdilution
[1] = test system: S. aureus ATCC29213; type: cell-based, Staphylococcus aureus; details: for MIC: Staphylococcus aureus, read-out: minimum inhibitory concentration (MIC)
From the text: (§1) The antibacterial activities of the compounds have been determined by standard microdilution technique (National Committee for Clinical Laboratory Standards. 1997. Methods for dilution antimicrobial susceptibility tests for bacteria that grow aerobically, 4th edition. Approved standard M7-A4. National Committee for Clinical Laboratory Standards, Wayne, Pa.).

[2] = test system: S. aureus 1086; type: cell-based, Staphylococcus aureus; details: for MIC: Staphylococcus aureus, read-out: minimum inhibitory concentration (MIC)
From the text: as §1

[3] = test system: S. aureus 745; type: cell-based, Staphylococcus aureus; details: for MIC: Staphylococcus aureus, read-out: minimum inhibitory concentration (MIC)
From the text: as §1

[4] = test system: St. pneumoniae 1/4; type: cell-based, Streptococcus pneumoniae; details: for MIC: Streptococcus pneumoniae, read-out: minimum inhibitory concentration (MIC)
From the text: as §1

[5] = test system: St. pneumoniae 1/1; type: cell-based, Streptococcus pneumoniae; details: for MIC: Streptococcus pneumoniae, read-out: minimum inhibitory concentration (MIC)
From the text: as §1

[6] = test system: St. pneumoniae 12288; type: cell-based, Streptococcus pneumoniae; details: for MIC: Streptococcus pneumoniae, read-out: minimum inhibitory concentration (MIC)
From the text: as §1

[7] = test system: St. pneumoniae SL199T; type: cell-based, Streptococcus pneumoniae; details: for MIC: Streptococcus pneumoniae, read-out: minimum inhibitory concentration (MIC)
From the text: as §1

[8] = test system: P. aeruginosa ATCC27853 (+Ery. 32 μg/ml); type: cell-based
From the text: as §1

[9] = test system: E. coli ATCC25922; type: cell-based; details: for MIC: Escherichia coli, read-out: minimum inhibitory concentration (MIC)
From the text: as §1

| SMILES | MIC [1] [µg/mL] | MIC [2] [µg/mL] | MIC [3] [µg/mL] | MIC [4] [µg/mL] | MIC [5] [µg/mL] | MIC [6] [µg/mL] | MIC [7] [µg/mL] | minimum inhibitory concentration (MIC) [8] [µg/mL] | MIC [9] [µg/mL] | minimum inhibitory concentration (MIC) [1] [µg/mL] | minimum inhibitory concentration (MIC) [2] [µg/mL] | minimum inhibitory concentration (MIC) [3] [µg/mL] | minimum inhibitory concentration (MIC) [4] | minimum inhibitory concentration (MIC) [5] | minimum inhibitory concentration (MIC) [6] [µg/mL] | minimum inhibitory concentration (MIC) [7] [µg/mL] | minimum inhibitory concentration (MIC) [9] [µg/mL] |
| --- | --- | --- | --- | --- | --- | --- | --- | --- | --- | --- | --- | --- | --- | --- | --- | --- | --- |
| CC[C@H]1OC(=O)[C@H](C)C(=O)[C@H](C)[C@@H](O[C@@H]2O[C@H](C)C[C@H](N(C)C)[C@H]2O)[C@](C)(OC)C[C@@H](C)C(=O)[C@H](C)[C@H]2[C@H](S(=O)(=O)CCCc3ccccc3)C(=O)O[C@@]21C [Compound I-24, (3S,3aR,4R,6R,8R,9R,10R,12R,15R,15aS)-15-Ethyloctahydro-8-methoxy-4,6,8,10,12,15a-hexamethyl-3-[(3-phenylpropyl)sulfonyl]-9-[[3,4,6-trideoxy-3-(dimethylamino)-β-D-xylo-hexopyranosyl]oxy]-2H-furo[2,3-c]oxacyclotetradecin-2,5,11,13(3H,6H,12H)-tetrone] | 1 (≈ 1.26 µM) | 1 (≈ 1.26 µM) | > 16 | 1 (≈ 1.26 µM) | ≤ 0.5 | 16 (≈ 20.2 µM) | 16 (≈ 20.2 µM) | >16 | > 16 | – | – | – | – | – | – | – | – |
| CC[C@H]1OC(=O)[C@H](C)C(=O)[C@H](C)[C@@H](O[C@@H]2O[C@H](C)C[C@H](N(C)C)[C@H]2O)[C@](C)(OC)C[C@@H](C)C(=O)[C@H](C)[C@H]2[C@H](SCCn3cnc4c(N(C)C)ncnc43)C(=O)O[C@@]21C [Compound I-27, (3S,3aR,4R,6R,8R,9R,10R,12R,15R,15aS)-3-[[2-[6-N,N-Dimethylamino-9H-purine-9-yl]ethyl]thio]-15-ethyloctahydro-8-methoxy-4,6,8,10,12,15a-hexamethyl-9-[[3,4,6-trideoxy-3-(dimethylamino)-β-D-xylo-hexopyranosyl]oxy]-2H-furo[2,3-c]oxacyclotetradecin-2,5,11,13(3H,6H,12H)-tetrone] | – | – | – | – | – | – | – | >16 | – | 0.25 (≈ 0.3 µM) | 1 (≈ 1.2 µM) | >16 | <=0.25 μg/ml | <=0.25 μg/ml | 2 (≈ 2.4 µM) | 1 (≈ 1.2 µM) | >16 |
| CC[C@H]1OC(=O)[C@H](C)C(=O)[C@H](C)[C@@H](O[C@@H]2O[C@H](C)C[C@H](N(C)C)[C@H]2O)[C@](C)(OC)C[C@@H](C)C(=O)[C@H](C)[C@H]2[C@H](SCc3ccccc3)C(=O)O[C@@]21C [Compound I-4, (3S,3aR,4R,6R,8R,9R,10R,12R,15R,15aS)-15-Ethyloctahydro-8-methoxy-4,6,8,10,12,15a-hexamethyl-3-[(phenylmethyl)thio]-9-[[3,4,6-trideoxy-3-(dimethylamino)-β-D-xylo-hexopyranosyl]oxy]-2H-furo[2,3-c]oxacyclotetradecin-2,5,11,13(3H,6H,12H)-tetrone] | 1 (≈ 1.36 µM) | 1 (≈ 1.36 µM) | > 16 | 8 (≈ 10.9 µM) | ≤ 0.5 | 16 (≈ 21.8 µM) | 16 (≈ 21.8 µM) | >16 | > 16 | – | – | – | – | – | – | – | – |

Next, values leading:

| MIC [1] [µg/mL] | MIC [2] [µg/mL] | MIC [3] [µg/mL] | MIC [4] [µg/mL] | MIC [5] [µg/mL] | MIC [6] [µg/mL] | MIC [7] [µg/mL] | minimum inhibitory concentration (MIC) [8] [µg/mL] | MIC [9] [µg/mL] | minimum inhibitory concentration (MIC) [1] [µg/mL] | minimum inhibitory concentration (MIC) [2] [µg/mL] | minimum inhibitory concentration (MIC) [3] [µg/mL] | minimum inhibitory concentration (MIC) [4] | minimum inhibitory concentration (MIC) [5] | minimum inhibitory concentration (MIC) [6] [µg/mL] | minimum inhibitory concentration (MIC) [7] [µg/mL] | minimum inhibitory concentration (MIC) [9] [µg/mL] | SMILES |
| --- | --- | --- | --- | --- | --- | --- | --- | --- | --- | --- | --- | --- | --- | --- | --- | --- | --- |
| ≤ 0.25 | ≤ 0.25 | > 16 | 4 (≈ 5.24 µM) | ≤ 0.5 | 8 (≈ 10.5 µM) | 4 (≈ 5.24 µM) | >16 | > 16 | – | – | – | – | – | – | – | – | CC[C@H]1OC(=O)[C@H](C)C(=O)[C@H](C)[C@@H](O[C@@H]2O[C@H](C)C[C@H](N(C)C)[C@H]2O)[C@](C)(OC)C[C@@H](C)C(=O)[C@H](C)[C@H]2[C@H](SCCOc3ccccc3)C(=O)O[C@@]21C [Compound I-11, (3S,3aR,4R,6R,8R,9R,10R,12R,15R,15aS)-15-Ethyloctahydro-8-methoxy-4,6,8,10,12,15a-hexamethyl-3-[[2-phenoxyethyl]thio]-9-[[3,4,6-trideoxy-3-(dimethylamino)-β-D-xylo-hexopyranosyl]oxy]-2H-furo[2,3-c]oxacyclotetradecin-2,5,11,13(3H,6H,12H)-tetrone] |
| ≤ 0.25 | ≤ 0.25 | > 16 | 1 (≈ 1.34 µM) | ≤ 0.5 | 8 (≈ 10.7 µM) | 2 (≈ 2.67 µM) | >16 | 16 (≈ 21.4 µM) | – | – | – | – | – | – | – | – | CC[C@H]1OC(=O)[C@H](C)C(=O)[C@H](C)[C@@H](O[C@@H]2O[C@H](C)C[C@H](N(C)C)[C@H]2O)[C@](C)(OC)C[C@@H](C)C(=O)[C@H](C)[C@H]2[C@H](SCCc3ccccn3)C(=O)O[C@@]21C [Compound I-13, (3S,3aR,4R,6R,8R,9R,10R,12R,15R,15aS)-15-Ethyloctahydro-8-methoxy-4,6,8,10,12,15a-hexamethyl-3-[[2-(2-pyridinyl)ethyl]thio]-9-[[3,4,6-trideoxy-3-(dimethylamino)-β-D-xylo-hexopyranosyl]oxy]-2H-furo[2,3-c]oxacyclotetradecin-2,5,11,13(3H,6H,12H)-tetrone] |
| ≤ 0.12 | ≤ 0.12 | > 16 | ≤ 0.12 | ≤ 0.12 | 4 (≈ 4.91 µM) | 1 (≈ 1.23 µM) | >16 | > 16 | – | – | – | – | – | – | – | – | CC[C@H]1OC(=O)[C@H](C)C(=O)[C@H](C)[C@@H](O[C@@H]2O[C@H](C)C[C@H](N(C)C)[C@H]2O)[C@](C)(OC)C[C@@H](C)C(=O)[C@H](C)[C@H]2[C@H](SCCn3ccc(-c4ccncc4)n3)C(=O)O[C@@]21C [Compound I-19, (3S,3aR,4R,6R,8R,9R,10R,12R,15R,15aS)-15-Ethyloctahydro-8-methoxy-4,6,8,10,12,15a-hexamethyl-3-[[2-[3-(4-pyridinyl)-1H-pyrazol-1-yl]ethyl]thio]-9-[[3,4,6-trideoxy-3-(dimethylamino)-β-D-xylo-hexopyranosyl]oxy]-2H-furo[2,3-c]oxacyclotetradecin-2,5,11,13(3H,6H,12H)-tetrone] |
| 0.5 (≈ 0.695 µM) | 0.5 (≈ 0.695 µM) | > 16 | 2 (≈ 2.78 µM) | ≤ 0.5 | 16 (≈ 22.2 µM) | 16 (≈ 22.2 µM) | >16 | > 16 | – | – | – | – | – | – | – | – | CC[C@H]1OC(=O)[C@H](C)C(=O)[C@H](C)[C@@H](O[C@@H]2O[C@H](C)C[C@H](N(C)C)[C@H]2O)[C@](C)(OC)C[C@@H](C)C(=O)[C@H](C)[C@H]2[C@H](Sc3ccccc3)C(=O)O[C@@]21C [Compound I-3, (3S,3aR,4R,6R,8R,9R,10R,12R,15R,15aS)-15-Ethyloctahydro-8-methoxy-4,6,8,10,12,15a-hexamethyl-3-[phenylthio]-9-[[3,4,6-trideoxy-3-(dimethylamino)-β-D-xylo-hexopyranosyl]oxy]-2H-furo[2,3-c]oxacyclotetradecin-2,5,11,13(3H,6H,12H)-tetrone] |
| ≤ 0.25 | ≤ 0.25 | > 16 | 1 (≈ 1.34 µM) | ≤ 0.5 | 32 (≈ 42.8 µM) | 4 (≈ 5.35 µM) | >16 | > 16 | – | – | – | – | – | – | – | – | CC[C@H]1OC(=O)[C@H](C)C(=O)[C@H](C)[C@@H](O[C@@H]2O[C@H](C)C[C@H](N(C)C)[C@H]2O)[C@](C)(OC)C[C@@H](C)C(=O)[C@H](C)[C@H]2[C@H](SCCc3ccccc3)C(=O)O[C@@]21C [Compound I-1, (3S,3aR,4R,6R,8R,9R,10R,12R,15R,15aS)-15-Ethyloctahydro-8-methoxy-4,6,8,10,12,15a-hexamethyl-3-[[2-phenylethyl]thio]-9-[[3,4,6-trideoxy-3-(dimethylamino)-β-D-xylo-hexopyranosyl]oxy]-2H-furo[2,3-c]oxacyclotetradecin-2,5,11,13(3H,6H,12H)-tetrone] |
